In patent US20230301998A1, “METHODS AND COMPOSITIONS FOR INDUCTION OF ANTITUMOR IMMUNITY” (Sanford Burnham Prebys Medical Discovery Institute, priority 2020, published 2023):

Key:
[1] = target: T1, PRMT5 (Mus musculus, UniProt Q8CIG8); assay: IP/immunoblot of IFI204 Arg methylation and SHARPIN interaction in B16 cells after PRMT5 inhibition; assay type: cell-based
T1 construct: endogenous in cells; host or cells: B16F10 murine melanoma cells (ATCC)
Protocol: Immunoblotting was performed using standard protocols. Melanoma cells were lysed by incubation in RIPA buffer [50 mM Tris-HC1, pH7.4, 1% (v/v) NP40, 0.1% (w/v) sodium deoxycholate, 0.1% (w/v) sodium dodecyl sulfate, 150 mM NaCl, 1mM EDTA, and protease and phosphatase inhibitor cocktails (Thermo Fisher Scientific)] and freeze-thawed 3 times. For immunoprecipitation HEK293T cells were lysed in 1% Triton X-100 buffer [50 mM Tris-HC1, pH7.4, 1% (v/v) Triton X-100, 150 mM NaCl, 1 mM EDTA, and protease and phosphatase inhibitor cocktails (Thermo Fisher Scientific)] and freeze-thawed 3 times. Lysates were then incubated overnight with indicated antibodies and then for 4 hr with protein A/G agarose beads (Santa Cruz Biotechnology) under gentle mixing. Proteins were eluted by addition of lysis buffer and boiled in Laemmli buffer before separation on SDS-PAGE and transfer to a PVDF membrane. […] Protein bands were visualized and quantified using an Odyssey Infrared Imaging System (LiCor Biosciences) or ChemiDoc Imaging System (Bio-Rad). […] STING polymer was analyzed using BlueNative(BN) PAGE (3). […] STING dimers and polymers were detected using a STING antibody (D2P2F, Cell Signaling),Immunofluorescence

[2] = system: cGAS/STING pathway; assay: dsDNA (V70mer)-stimulated cGAS/STING signalling in B16 cells (qPCR, western blot); assay type: cell-based, mouse
[3] = target: T2, PRMT5 (Homo sapiens, UniProt O14744); assay: IP/immunoblot of IFI16 Arg methylation and SHARPIN interaction in human melanoma cells after PRMT5 inhibition; assay type: cell-based
T2 construct: endogenous in cells; host or cells: A375 and WM115 human melanoma cells
T2 sequence (O14744 whole entry): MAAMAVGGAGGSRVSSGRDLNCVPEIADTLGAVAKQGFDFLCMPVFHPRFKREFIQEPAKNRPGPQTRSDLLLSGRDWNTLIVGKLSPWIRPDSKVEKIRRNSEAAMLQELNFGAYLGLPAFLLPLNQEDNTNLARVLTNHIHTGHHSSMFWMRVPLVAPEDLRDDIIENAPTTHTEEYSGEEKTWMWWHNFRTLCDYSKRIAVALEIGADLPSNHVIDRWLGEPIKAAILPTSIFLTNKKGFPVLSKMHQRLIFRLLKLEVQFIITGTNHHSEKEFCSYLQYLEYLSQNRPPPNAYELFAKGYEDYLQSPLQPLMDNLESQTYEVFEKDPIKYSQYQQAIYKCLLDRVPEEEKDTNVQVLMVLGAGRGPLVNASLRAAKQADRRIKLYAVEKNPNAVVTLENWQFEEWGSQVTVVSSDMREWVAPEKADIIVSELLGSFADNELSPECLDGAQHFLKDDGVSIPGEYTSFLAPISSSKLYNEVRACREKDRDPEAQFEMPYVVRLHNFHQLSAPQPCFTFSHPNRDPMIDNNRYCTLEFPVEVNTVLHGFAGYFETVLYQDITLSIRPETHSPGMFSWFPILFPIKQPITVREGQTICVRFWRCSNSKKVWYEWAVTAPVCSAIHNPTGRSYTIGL
T2 sequence (Q9BQA1 whole entry partner): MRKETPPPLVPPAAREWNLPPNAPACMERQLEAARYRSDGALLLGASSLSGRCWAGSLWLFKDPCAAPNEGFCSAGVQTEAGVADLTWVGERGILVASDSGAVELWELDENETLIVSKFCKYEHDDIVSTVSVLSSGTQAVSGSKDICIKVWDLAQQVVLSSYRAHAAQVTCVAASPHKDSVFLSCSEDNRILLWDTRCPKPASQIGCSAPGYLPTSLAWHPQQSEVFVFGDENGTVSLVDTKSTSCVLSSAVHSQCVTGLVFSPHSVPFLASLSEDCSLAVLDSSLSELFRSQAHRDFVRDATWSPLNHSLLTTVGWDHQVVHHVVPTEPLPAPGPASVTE
Protocol: Immunoblotting was performed using standard protocols. Melanoma cells were lysed by incubation in RIPA buffer [50 mM Tris-HC1, pH7.4, 1% (v/v) NP40, 0.1% (w/v) sodium deoxycholate, 0.1% (w/v) sodium dodecyl sulfate, 150 mM NaCl, 1mM EDTA, and protease and phosphatase inhibitor cocktails (Thermo Fisher Scientific)] and freeze-thawed 3 times. For immunoprecipitation HEK293T cells were lysed in 1% Triton X-100 buffer [50 mM Tris-HC1, pH7.4, 1% (v/v) Triton X-100, 150 mM NaCl, 1 mM EDTA, and protease and phosphatase inhibitor cocktails (Thermo Fisher Scientific)] and freeze-thawed 3 times. Lysates were then incubated overnight with indicated antibodies and then for 4 hr with protein A/G agarose beads (Santa Cruz Biotechnology) under gentle mixing. Proteins were eluted by addition of lysis buffer and boiled in Laemmli buffer before separation on SDS-PAGE and transfer to a PVDF membrane. Membranes were incubated for 1 h at room temperature with blocking solution [TBS (Tris-buffered Saline); 10 mM Tris-HC1, pH8.0, 150 mM NaCl)] containing 0.1% Tween 20 and 5% nonfat milk followed by incubation overnight at 4° C. with appropriate primary antibodies. Membranes were washed with TBS and incubated 1 h at room temperature with secondary antibody [Alexa 680-conjugated goat anti-rabbit, goat anti-mouse, donkey anti-goat (Life Technologies) or IRDye 800-conjugated goat anti-mouse (Rockland Immunochemicals)], or HRP-conjugated anti-mouse or anti-rabbit IgG antibodies. TidyBlot anti-rabbit secondary antibody (Bio-Rad) was used to detect immunoprecipitated proteins (SHARPIN). Blots were treated with HRP-conjugated antibodies and SuperSignal West Pico or Femto chemiluminescent substrate (ThermoFisher scientific). Protein bands were visualized and quantified using an Odyssey Infrared Imaging System (LiCor Biosciences) or ChemiDoc Imaging System (Bio-Rad). […] STING polymer was analyzed using BlueNative(BN) PAGE (3). […] STING dimers and polymers were detected using a STING antibody (D2P2F, Cell Signaling),Immunofluorescence

[4] = system: B16F10 cells; assay: B16F10 syngeneic melanoma tumor model in C57BL/6 mice (tumor volume, response, survival, immune phenotyping); assay type: in vivo, mouse; settings: for Non-responder / Responder: number of mice
Protocol: Animal experiments. All animal experiments were conducted with approval of the Institutional Animal Care and Use Committee of Sanford Burnham Prebys Medical Discovery Institute (AUF#18-044). The murine melanoma lines B16F10, YUMM1.7 , and YUMMER1.7 were injected subcutaneously (2.0×10^5 cells of B16F10 or YUMM1.7; 4.0 ×10^5 cells of YUMMER1.7) into the lower right flank of 6-8-week-old male C57BL/6 (B16F10, YUMM1.7, YUMMER1.7) or Nod-Scid-Gamma (NSG) (B16F10, YUMMER1.7) mice. To induce transduced inducible shPRMT5, doxycycline (10 mg/ml, Fisher Bioreagents) was prepared in methylcellulose solution (0.5% hydroxylmethylcellulose, 0.2% Tween80) and administered to mice (0.2 ml, oral gavage, QD)Tumor sizes were monitored using calipers. At indicated time points, tumors were collected, 21 weighed and assessed for immune phenotypes using flow cytometry or immunofluorescence. To assess efficacy of immune checkpoint antibodies, mice were grafted with B16F10 or YUMM1.7 (2.0×10^5 cells, s.c.) cells and treated with 200 μg control IgG [rat IgG2a; BE0089 (BioXcell)], anti-CD152 (CTLA-4) [9H10 (BE0131, BioXcell)] or anti-CD279 (PD-1) [RMP1-14 (BE0146, BioXcell)]. Antibodies were injected (i.p.) 3 - 5 times (every 3 days starting from the indicated date). […] Antibodies were injected (i.p.) every 3 days starting one day prior to tumor cell inoculation. The efficiency of depletion was assessed using flow cytometry of blood samples collected at day 8 after tumor inoculation. To assess percent survival of animals, mice bearing tumors exceeding 2,000 mm^3 were defined as “dead”. Gene set enrichment (GSEA) and Ingenuity Pathway (IPA) analyses
(§1) Statistical analyses were performed using Prism software (version 7.00, GraphPad). For comparison of means of two groups with normal (or approximately normal) distributions, an un-paired t-test was applied. To compare means between >2 groups, one-way analysis of variance (ANOVA) was used with multiple comparison corrections (Dunnett's or Tukey's test). For animal experiments, two-way ANOVA (time and treatment) was used with Tukey's multiple comparison test. For Kaplan-Meier plots to compare overall survival, a log-rank test was used to determine significance of differences between groups. To evaluate response to therapy in a mouse model, Fisher's exact test (version 7.00, GraphPad) was used. For that analysis, a tumor with volume <50% of control tumors was defined as “responding to treatment”. For all analyses, a difference with p<0.05 was considered significant, unless specified.
For immune phenotyping, B16F10 tumors were collected and processed by chopping and mincing using a tube-secured cell strainer (70 p.m poresize, Falcon) to prepare single cells for flow cytometry. YUMMER1.7 cells were processed by chopping, following incubation in Collargenase D solution [0.1% (w/v) Collagenase D, 0.5% (w/v) BSA, 100 μg/ml DNase in PBS] for 1 hr at 30° C. and mincing using cells strainer. […] All antibodies were from Biolegend. Stained cells were fixed in 1% formaldehyde (Sigma) in PBS (pH7.4) for 15 min at 4° C. and analyzed with BD LSRFortessa (BD Biosciences) flow cytometry. For intranuclear staining of FoxP3, cells were fixed and permearbilized using a FoxP3/Transcription factor Fixation/Permearbilization kit (ThermoFisher Scientific). […] Cells were stained with antibody cocktail for surface markers [CD45.2, CD4, and CD8] and followed by staining with intraceullar cytokine antibodies [IFN gamma (APC), TNF alpha(FITC) and IL-2(PE)]. The number of specific immune cells per gram of tumor was calculated based on the percentage of specified immune cells identified in FACS (relative to the total number of tumors cells) per tumor weight. […] Cells were fixed and analyzed as above. To assess effects efficiency of in vivo depletion of CD8 T or NK cells, immune cells were isolated from mouse blood and RBCs were lysed using hypotonic buffer [15 mM NH4C1, 10 mM KHCO3, 0.1mM Na2EDTA] for 1 hr at 4° C.

[5] = system: YUMM1.7 cells; assay: YUMM1.7 syngeneic melanoma tumor model in C57BL/6 mice (tumor volume, response); assay type: in vivo, mouse; settings: for Non-responder / Responder: number of mice
Protocol: Animal experiments. All animal experiments were conducted with approval of the Institutional Animal Care and Use Committee of Sanford Burnham Prebys Medical Discovery Institute (AUF#18-044). The murine melanoma lines B16F10, YUMM1.7 , and YUMMER1.7 were injected subcutaneously (2.0×10^5 cells of B16F10 or YUMM1.7; 4.0 ×10^5 cells of YUMMER1.7) into the lower right flank of 6-8-week-old male C57BL/6 (B16F10, YUMM1.7, YUMMER1.7) or Nod-Scid-Gamma (NSG) (B16F10, YUMMER1.7) mice. To induce transduced inducible shPRMT5, doxycycline (10 mg/ml, Fisher Bioreagents) was prepared in methylcellulose solution (0.5% hydroxylmethylcellulose, 0.2% Tween80) and administered to mice (0.2 ml, oral gavage, QD)Tumor sizes were monitored using calipers. At indicated time points, tumors were collected, 21 weighed and assessed for immune phenotypes using flow cytometry or immunofluorescence. To assess efficacy of immune checkpoint antibodies, mice were grafted with B16F10 or YUMM1.7 (2.0×10^5 cells, s.c.) cells and treated with 200 μg control IgG [rat IgG2a; BE0089 (BioXcell)], anti-CD152 (CTLA-4) [9H10 (BE0131, BioXcell)] or anti-CD279 (PD-1) [RMP1-14 (BE0146, BioXcell)]. Antibodies were injected (i.p.) 3 - 5 times (every 3 days starting from the indicated date). […] To deplete NK or CD8+ cells, mice were treated with anti-NK1.1 antibody [PK136 (BE0036, BioXcell)] or anti-CD8 antibody [2.43(BE0061, BioXcell), respectively; controls were treated with 200 μtg IgG [rat IgG2b (BE0090, BioXcell)]. Antibodies were injected (i.p.) every 3 days starting one day prior to tumor cell inoculation. The efficiency of depletion was assessed using flow cytometry of blood samples collected at day 8 after tumor inoculation. To assess percent survival of animals, mice bearing tumors exceeding 2,000 mm^3 were defined as “dead”. Gene set enrichment (GSEA) and Ingenuity Pathway (IPA) analyses
as §1

[6] = system: Nlrc5 and Nlrc5 target genes; assay: Expression of antigen presentation genes / surface MHCI in B16 cells; assay type: cell-based, mouse; settings: B16 cells, MTA 100 μM for 24 hr, qPCR (FIG. 14E)
[7] = system: RIG-I/TLR3; assay: dsRNA poly(I:C)-induced type I interferon response in B16 cells (qPCR); assay type: cell-based, mouse; settings: B16 melanoma cells, poly(I:C) 250 ng/ml 6 hr (FIG. 12J)
[8] = FIG. 17E: B16 in C57BL/6, PRMT5i GSK3326595 40 mg/kg from day 10, anti-PD-1 200 μg/mouse days 11, 14, 17, responder = tumor volume <50% of control
[9] = FIG. 18C: B16F10 in syngeneic mice, PRMT5i GSK3326595 40 mg/kg QD from day 6, anti-PD1 days 8, 11, 14, 17
[10] = FIG. 17F: YUMM1.7 in C57BL/6, PRMT5i from day 7, anti-PD-1 days 8, 11, 14, 17
[11] = FIG. 17G: YUMM1.7 in C57BL/6, anti-CD8 200 μg/mouse every three days, PRMT5i from day 8, anti-PD-1 days 9, 12, 15, 18

T1 sequence (Q8CIG8 whole entry): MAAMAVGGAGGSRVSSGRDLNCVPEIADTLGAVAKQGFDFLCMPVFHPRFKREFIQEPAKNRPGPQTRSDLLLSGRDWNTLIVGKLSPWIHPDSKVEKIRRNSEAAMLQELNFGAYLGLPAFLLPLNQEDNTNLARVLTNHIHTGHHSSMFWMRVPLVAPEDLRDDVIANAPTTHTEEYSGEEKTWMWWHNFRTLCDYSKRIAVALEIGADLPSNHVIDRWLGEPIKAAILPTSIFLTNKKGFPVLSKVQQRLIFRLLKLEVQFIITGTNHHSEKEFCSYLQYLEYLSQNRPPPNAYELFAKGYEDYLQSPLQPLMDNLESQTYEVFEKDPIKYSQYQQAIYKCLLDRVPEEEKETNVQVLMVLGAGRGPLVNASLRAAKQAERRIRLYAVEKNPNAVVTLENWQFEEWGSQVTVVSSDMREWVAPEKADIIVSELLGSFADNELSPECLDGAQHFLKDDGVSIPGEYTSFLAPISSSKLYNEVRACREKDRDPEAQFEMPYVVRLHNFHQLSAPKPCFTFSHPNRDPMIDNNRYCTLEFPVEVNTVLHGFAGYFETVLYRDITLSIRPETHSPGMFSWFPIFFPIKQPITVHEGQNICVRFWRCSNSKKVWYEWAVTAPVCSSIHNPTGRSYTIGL
T1 sequence (Q99J09 whole entry partner): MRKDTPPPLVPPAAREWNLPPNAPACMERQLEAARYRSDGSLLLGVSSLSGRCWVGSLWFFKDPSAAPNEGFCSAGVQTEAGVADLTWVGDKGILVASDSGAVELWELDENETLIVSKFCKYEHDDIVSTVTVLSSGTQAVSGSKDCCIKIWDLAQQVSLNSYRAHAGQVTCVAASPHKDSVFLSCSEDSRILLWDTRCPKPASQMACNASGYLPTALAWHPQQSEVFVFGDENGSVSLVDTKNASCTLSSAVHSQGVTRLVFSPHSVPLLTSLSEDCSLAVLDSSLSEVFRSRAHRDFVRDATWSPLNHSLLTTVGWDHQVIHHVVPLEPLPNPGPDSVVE

## O=C(NC[C@H](O)CN1CCc2ccccc2C1)c1cc(NC2COC2)ncn1 [EPZ015666]
[1]; EPZ015666 10 μM (FIG. 8D)
  IFI204 interaction with SHARPIN: stronger interaction with SHARPIN
[1]; EPZ015666 10 μM (FIG. 8F)
  reduced IFI204 methylation: 57%
[2]; B16 cells treated 24 hr, then V70mer dsDNA 500 ng/ml 6 h, qPCR (FIG. 11B)
  expression of Ifnb1, Cc15 and Cxcl10: increased
[2]; B16 melanoma, V70mer 1.5 μg/ml, western blot (FIG. 11G)
  TBK1-IRF3 signaling: activated TBK1-IRF3 signaling
[3]; A375 melanoma cells, EPZ015666 10 μM (FIG. 8E)
  decrease in IFI16 methylation: 50%
[3]; A375 melanoma cells, EPZ015666 10 μM (FIG. 10C)
  degree of interaction between IFI16 and SHARPIN: enhanced
[3]; WM115 cells (MTAP-deleted), EPZ015666 10 μM (FIG. 10D)
  decrease in IFI16 methylation: 15%

## CC(=O)N1CCC(Nc2cc(C(=O)NC[C@H](O)CN3CCc4ccccc4C3)ncn2)CC1 [GSK3326595]
[4]; B16F10, PRMT5i monotherapy 40 mg/kg QD from day 8, tumors day 15, flow cytometry (FIGS. 18E-G)
  immune cell infiltration or activation in tumors: notable changes were not observed
[4]; B16 and YUMM1.7 models, FIGS. 17E-F, 18C-D, table 5
  response rate across experiments: 14.3˜66.7%
[4]; [8]
  Non-responder: 6
  Responder: 1
[4]; FIG. 17E: B16 in C57BL/6, PRMT5i from day 10, anti-PD-1 days 11, 14, 17, percent of responders in group
  Response rate (%): 14.3%
[4]; FIG. 18C: B16F10, PRMT5i 40 mg/kg QD from day 6, anti-PD1 days 8, 11, 14, 17
  Response rate (%): 66.7%
[4]; [9]
  Non-responder: 2
  Responder: 4
[5]; [10]
  Response rate (%): 28.6%
  Non-responder: 5
  Responder: 2
[5]; [11]
  Non-responder: 6
  Responder: 1
[5]; FIG. 17G: YUMM1.7 in C57BL/6, anti-CD8 depletion, PRMT5i from day 8, anti-PD-1 days 9, 12, 15, 18
  Response rate (%): 14.3%

## CSC[C@H]1O[C@@H](n2cnc3c(N)ncnc32)[C@H](O)[C@@H]1O [MTA]
[6]
  basal Nlrc5 expression and that of Nlrc5 target genes (Tap1, B2m, Psmb9): increased

## poly(I:C)
[7]
  Ifnb1 and chemokine expression: induced
